Our source for the IC50 and EC50 values is US5245034A, “Compound having vessel smooth muscle relaxation activity” (Hidaka; Kiroyoshi, priority 1988, dated 1993).

One experiment relates to washed platelets. Kind of experiment: Platelet Agglutination Inhibition (P.A.), collagen-induced. Type of experiment: cell-based, human (healthy person). The settings on record: Homo sapiens, washed platelets, collagen, 37° C., read-out: P.A. (IC50). The protocol: To this suspension was added one sixth volume of ACD solution, and the whole was further centrifuged at 1500×G for 5 minutes to prepare a platelet pellet. The platelet pellet was then suspended in a modified HEPES Tyrode solution to obtain about 3×10^5 /μl in washed platelet suspension.
To 270 μl of the washed platelet suspension was added 3 μl of a solution of a test compound dissolved in an appropriate medium in different concentration, and the mixture was pre-incubated at 37° C. for 2 minutes.
As a control, the above-mentioned procedure was carried out except that the test medium without a test compound was used, and the absorbance before addition of collagen and the maximum absorbance after addition of collagen were measured, and the difference between both absorbances was taken as 100% agglutination.
For test compound, the absorbance before an addition of collagen and the maximum absorbance after an addition of collagen were measured, and a percent of the inhibition was determined, compared with the control.

For experiment [1], the system named is superior mesenteric artery (contracted by potassium chloride). Kind of experiment: Vessel Smooth Muscle Relaxation Action (V.R.). Type of experiment: cell-based, rabbit. The settings on record: Oryctolagus cuniculus; concentration relaxing KCl-contracted strain to 50%; cumulative administration; read-out: V.R. (ED50). From the text: The specimen was suspended by loading a strain in Krebs-Henseleit solution through which an oxygen gas containing 5% carbon dioxide was bubbled. The specimen was contracted by adding potassium chloride to maintain a predetermined strain. Thereafter, a test compound was cumulatively administrated.

Experiment [2] concerns the target Calmodulin-Dependent Phosphodiesterase (Ca^2+ PDE). Nature of the experiment: Calmodulin-Dependent Phosphodiesterase Inhibition (Ca^2+ PDE). Type of experiment: biochemical, rat. The settings on record: [^3 H]-cGMP, 30° C. On the procedure:
Phosphodiesterase (Ca^2+ PDE)Ca^2+ PDE was partially purified from the brain of rat by DEAE-Sepharose column chromatography.
Calmodulin was purified from the calf brain using a calmodulin inhibitor W-7 affinity column.
A reaction mixture contained 20 μl of 500 mM Tris-HCl (pH 8.0), 20 μl of 50 mM MgCl2, 20 μl of 2 mM CaCl2 (or 10 mM EGTA), 20 μl of 1 mg/ml bovine serum albumin, PDE, […] of calmodulin, test sample and distilled water to make total volume 200 μl. To the mixture was added 20 μl of 4 μM [^3 H]-cGMP (2.5 μCi/ml), the mixture was incubated at 30° C. for 15 minutes, and then heated in boiling water for 3 to 5 minutes to terminate the reaction, and cooled in ice-water bath. 20 μg of 5'-nucleotidase (Snake venum) was added to the mixture, and the mixture was again incubated at 30° C. for 10 minutes. After addition of about 2 ml of water, the sample was applied to a cation exchange resin column (Biorad AG.AG50W-X4 to adsorbe the [^3 H]-guanosine and additionally about 2 ml of washing water for the sample was added to the column. The column was washed with about 20 ml of water, and the adsorbed [^3 H]-guanosine was eluted with 3 ml of 3N NH4 OH, and the elute was directly received by a vial. After an addition of 10 ml of an emulsified scintillation solution (ACS-II, AMERSHAM) the radio activity was measured by a scintillation counter LS7500 (Beckmann). The enzyme activity in the presence of calmodulin was taken as […], and a concentration of a test compound in μM which provides a 50% inhibition was expressed as IC50.

What is called IC50 is the point on the concentration scale where inhibition reaches its midpoint. Regarding `CN(C(Cc1ccc(OS(=O)(=O)c2cccc3cnccc23)cc1)CN1CCN(C(=O)OCc2ccccc2)CC1)S(=O)(=O)c1cccc2cnccc12` (centres unmarked) [Example 60, N-{2-(4-Benzyloxycarbonylpiperazinyl)-1-[P-(5-Isoquinolinesulfonyloxy)Benzyl]Ethyl}-N-Methyl-5-Isoquinolinesulfonamide], the IC50 in the experiment with washed platelets was 10 µM. As to `CN(C(Cc1ccc(OS(=O)(=O)c2cccc3cnccc23)cc1)CN1CCN(C(=O)c2ccccc2)CC1)S(=O)(=O)c1cccc2cnccc12` (centres unmarked) [Example 74, N-{2-(4-Benzoylpiperazinyl)-1-[P-(5-Isoquinolinesulfonyloxy)Benzyl]Ethyl}-N-Methyl-5-Isoquinolinesulfonamide], in the experiment with washed platelets, the IC50 was determined as 2.8 µM. `COc1ccc(N2CCN(CC(Cc3ccc(N4C(=O)c5ccccc5C4=O)cc3)N(C)S(=O)(=O)c3cccc4cnccc34)CC2)cc1` (centres unmarked) [Example 126, N-{2-[4-(P-Methoxyphenyl)Piperazinyl]-1-(P-Phthalimidebenzyl)Ethyl}-N-Methyl-5-Isoquinolinesulfonamide]: in the experiment with washed platelets, the IC50 came out at 10 µM.

With `CC(C=Cc1ccccc1)NCCNS(=O)(=O)c1cccc2cnccc12` (stereo not drawn) [Example 154, N-[2-(α-Methylcinnamylamino)Ethyl]-5-Isoquinolinesulfonamide], the IC50 in the experiment with washed platelets is 60 µM. With `O=S(=O)(NC(Cc1ccc(O)cc1)CN1CCN(c2ncccn2)CC1)c1cccc2cnccc12` (centres unmarked) [Example 40, N-{1-(p-hydroxybenzyl)-2-[4-(2-pyrimidyl)piperazinyl]ethyl}-5-isoquinolinesulfonamide], in the experiment with washed platelets, the IC50 turned out to be 4.7 µM. As to `Cc1ccc(S(=O)(=O)N(C)c2ccc(CC(C(=O)N3CCN(c4ccccc4)CC3)N(C)S(=O)(=O)c3cccc4cnccc34)cc2)cc1` (centres unmarked) [Example 26, 1-{N-(5-isoquinolinesulfonyl)-N-methyl-p-[N'-methyl-N'-(p-toluenesulfonyl)amino]phenylalanyl}-4-phenylpiperazine], the 50% inhibitory concentration (IC50) with washed platelets is 10 µM. Take `Cc1ccc(CN(C(Cc2ccc(O)cc2)CN2CCC(O)CC2)S(=O)(=O)c2cccc3cnccc23)cc1` (centres unmarked) [Example 106, N-[1-(P-Hydroxybenzyl)-2-(4-Hydroxypiperidino)Ethyl]-N-P-Methylbenzyl-5-Isoquinolinesufonamide]: in experiment [1], the EC50 was 8.9 µM. This molecule also returned an IC50 in experiment [2] of 28 µM. Taken in the same sequence, the figures for `CC(C=Cc1ccccc1[N+](=O)[O-])NCCNS(=O)(=O)c1cccc2cnccc12` (centres unmarked) [Example 158] were 17 µM and 21 µM.

For `O=S(=O)(Nc1ccccc1NCC=Cc1ccc(Cl)cc1)c1cccc2cnccc12` [Example 142, N-[2-(4-Chlorocinnamylamino)Phenyl]-5-Isoquinolinesulfonamide], the EC50 in experiment [1] came out at 6.8 µM. The molecule further returned an IC50 in experiment [2] of 1.1 µM.

Turning to `O=S(=O)(NC(Cc1ccc(OCc2ccccc2)cc1)CN1CCN(c2ccccc2)CC1)c1cccc2cnccc12` (centres unmarked) [Example 88, N-{1-[(4-benzyloxy)benzyl]-2-(4-phenylpiperazinyl)ethyl}-5-isoquinolinesulfonamide], in experiment [1], the EC50 worked out at 4.3 µM. This molecule showed an IC50 in experiment [2] of 14 µM.

As for `O=S(=O)(c1cccc2cnccc12)N1CCN(CC=Cc2ccc(Cl)cc2)c2ccccc21` [Example 144, 1-(4-Chlorocinnamyl)-4-(5-Isoquinolinesulfonyl)-1,2,3,4-Tetrahydroquinoxaline], the EC50 in experiment [1] stood at 1.8 µM. It took 1 µM to reach half-maximal inhibition in experiment [2] (IC50). Take `CN([C@@H](Cc1ccc(OS(=O)(=O)c2cccc3cnccc23)cc1)C(=O)N1CCN(c2ccccc2)CC1)S(=O)(=O)c1cccc2cnccc12` [Example 109, 1-[N,O-Bis(5-Isoquinolinesulfonyl)-N-Methyltyrosyl]-4-Phenylpiperazine]: in experiment [1], the EC50 was 0.59 µM. Besides, in experiment [2], the IC50 was 1.3 µM. For `CN([C@@H](Cc1ccc(O)cc1)C(=O)N1CCN(c2ccccc2)CC1)S(=O)(=O)c1cccc2cnccc12` [Example 110, 1-[N-(5-Isoquinolinesulfonyl)-N-Methyltyrosyl]-4-Phenylpiperazine], in experiment [1], the EC50 turned out to be 3.8 µM. This molecule also yielded an IC50 in experiment [2] of 9.3 µM.

Regarding `CN(C(Cc1ccc(OS(=O)(=O)c2cccc3ccccc23)cc1)CN1CCN(c2ccccc2)CC1)S(=O)(=O)c1cccc2ccccc12` (stereo not drawn) [Example 57, N-methyl-N-{1-[p-(α-naphtharenesulfonyloxy) -benzyl]-2-(4-phenylpiperazinyl)ethyl}-α-naphtharenesulfonamide], the EC50 in experiment [1] came out at 0.75 µM. The IC50 in experiment [2] came to 50 µM. Turning to `O=S(=O)(c1cccc2cnccc12)N1CCN(CC=Cc2ccc(Cl)cc2)CC1` [Example 191, 1-(4-Chlorocinnamyl)-4-(5-Isoquinolinesulfonyl)Piperazine], the EC50 in experiment [1] turned out to be 1.9 µM. For the same molecule, the half-maximal inhibitory concentration (IC50) in experiment [2] came to 26 µM. On to `CN(C(Cc1cnc[nH]1)CN1CCN(c2ccccc2)CC1)S(=O)(=O)c1cccc2cnccc12` (centres unmarked) [Example 4, N-[1-(Imidazol-4(5)-Yl-Methyl)-2-(4 -Phenylpiperazinyl)Ethyl]-N-Methyl-5-Isoquinoline Sulfonamide], for which the EC50 in experiment [1] stood at 12 µM. Also, the IC50 in experiment [2] came out at 53 µM. For `CN(c1ccc(CC(C(=O)N2CCN(c3ccccc3)CC2)N(C)S(=O)(=O)c2cccc3cnccc23)cc1)S(C)(=O)=O` (centres unmarked) [Example 24, 1-[N-(5-isoquinolinesulfonyl)-p-(N'-methanesulfonyl-N'-methylamino) N-methylphenylalanyl]-4-phenylpiperazine], the EC50 in experiment [1] came to 8.3 µM. In experiment [2], it took 63 µM to reach half-maximal inhibition (IC50). Taken in the same sequence, the figures for `O=S(=O)(Nc1ncccc1NCC=Cc1ccc(Cl)cc1)c1cccc2cnccc12` [Example 147, 3-(4-Chlorocinnamylamino)-2-(5-Isoquinolinesulfonylamino)Pyridine] were 1.2 µM and 42 µM. `COc1ccc(CC(CN2CCC(OCc3ccc(Cl)c(Cl)c3)CC2)N(C)S(=O)(=O)c2cccc3cnccc23)cc1` (centres unmarked) [Example 91, N-{2-[4-(3,4-Dichlorobenzyloxy)Piperidine]-1-(P-Methoxybenzyl)Ethyl}-N-Methyl-5-Isoquinolinesulfonamide]: the EC50 in experiment [1] is 1.1 µM. In experiment [2], this molecule had an IC50 of 10 µM. `CN(C(Cc1ccc(NS(=O)(=O)c2cccc3ccccc23)cc1)C(=O)N1CCN(c2ccccc2)CC1)S(=O)(=O)c1cccc2cnccc12` (centres unmarked) [Example 20, 1-[N-(5-isoquinolinesulfonyl)-N-methyl-p-(1-naphtharenesulfonylamino)phenylalanyl]-4-phenylpiperazine]: the EC50 in experiment [1] turned out to be 1 µM. In experiment [2], the IC50 was determined as 23 µM. Regarding `CN(C(Cc1ccc(O)cc1)CN1CCN(c2ccccc2)CC1)S(=O)(=O)c1cccc2ccccc12` (stereo not drawn) [Example 58, N-[1-(p-hydroxybenzyl)-2-(4-phenylpiperazinyl)ethyl]-N-methyl-α-naphtharenesulfonamide], the EC50 in experiment [1] was 0.25 µM. The same molecule yielded an IC50 in experiment [2] of 63 µM. Take `O=S(=O)(NC(Cc1ccc(OS(=O)(=O)c2cccc3cnccc23)cc1)CN1CCN(c2ccc(F)cc2)CC1)c1cccc2cnccc12` (centres unmarked) [Example 48]: in experiment [1], the EC50 was determined as 3.9 µM. The same molecule displayed a concentration for half-maximal inhibition (IC50) in experiment [2] of 6.5 µM. `O=C(CCc1ccccc1)N1CCCN(CC(Cc2ccc(O)cc2)NS(=O)(=O)c2cccc3cnccc23)CC1` (centres unmarked) [Example 119, N-{1-(P-Hydroxybenzyl)-2-[4-(3-Phenylpropionyl)Homopiperazinyl]Ethyl}-5-Isoquinolinesulfonylamide]: in experiment [1], the EC50 worked out at 11 µM. For the same molecule, in experiment [2], the IC50 amounted to 51 µM. On to `CN(C(Cc1ccc(OS(=O)(=O)c2cccc3cnccc23)cc1)CN1CCC(O)CC1)S(=O)(=O)c1cccc2cnccc12` (centres unmarked) [Example 99, N-{2-(4-Hydroxypiperidino)-1-[P-(5-Isoquinolinesulfonyloxy)Benzyl]Ethyl}-N-Methyl-5-Isoquinolinesulfonamide], for which the EC50 in experiment [1] is 2.8 µM. The molecule also registered a half-maximal inhibitory concentration (IC50) in experiment [2] of 61 µM. Taken in the same sequence, the figures for `O=S(=O)(NC(Cc1ccc(O)cc1)CN1CCC(OCc2ccc(Cl)c(Cl)c2)CC1)c1cccc2cnccc12` (centres unmarked) [Example 87, N-{1-(p-hydroxybenzyl)-2-[4-(3,4-dichlorobenzyloxy)piperidino]ethyl}-5-isoquinolinesulfonamide] were 1.7 µM and 1.9 µM.
